Measurements published in ChEMBL document CHEMBL1145707, “Methyl 4-hydroxy-3-(3'-methyl-2'-butenyl)benzoate, major insecticidal principle from Piper guanacastensis” (1997).
Converted amounts (≈) assume the structure as drawn.

Test system: Aedes atropalpus
Assay: Insecticidal activity against Aedes atropalpus second-instar larvae after 24 hrs
Type: functional

| Compound | LC50 |
| --- | --- |
| CCOC(=O)c1ccc(O)c(CC=C(C)C)c1 | 25.7 µg/mL (≈ 110 µM) |
| COC(=O)c1ccc(O)c(CC=C(C)C)c1 | 20.5 µg/mL (≈ 93.1 µM) |
